In test [1] the target is T1, SARS-CoV-2 PLpro (nsp3 1564–1878) (Severe acute respiratory syndrome coronavirus 2, UniProt P0DTD1). Briefly: biochemical. The conditions noted are these: high concentration screen, read-out: % of control remaining. On the set-up: FRET-quenched peptide (Pro3) cleavage by PLpro, 10 min pre-incubation, slope over 20 min, normalised to no-compound control.
For test [2], the target named is T1, SARS-CoV-2 PLpro (nsp3 1564–1878). Briefly: biochemical. Also on record: FRET-quenched peptide (Pro3) cleavage by PLpro, 10 min pre-incubation, slope over 20 min, normalised to no-compound control. The conditions noted are these: low concentration screen, read-out: % of control remaining.

Counter-ions that a name gives are not always drawn. Like-named read-outs stand apart in the source and are kept apart here.

Among the data in PMC8286840, “Identifying SARS-CoV-2 antiviral compounds by screening for small molecule inhibitors of Nsp3 papain-like protease” (Biochemical Journal, 2021) are remaining activity values, retold here.

As to `COc1ccc(C(=O)NCc2cccnc2)cc1C(=O)NCc1cccnc1` [Picotamide], the remaining activity at 3.75 µM was 102% in test [1] (Well no.=1351) and 90.3% in test [1] (Well no.=2202). Also, the remaining activity at 1.25 µM stood at 102% in test [2] (Well no.=1351) and 88.9% in test [2] (Well no.=2202).

In the case of `Cc1cc(-c2nnc(N)nc2-c2ccc(F)cc2)cc(Cl)n1` [AZD4635], the remaining activity at 3.75 µM in test [1] (Well no.=8355) was 96%. The remaining activity at 1.25 µM in test [2] (Well no.=8355) amounted to 98.3%.

Regarding `CC(=O)O[C@]1(C(C)=O)CC[C@H]2[C@@H]3C=C(Cl)C4=CC(=O)[C@@H]5C[C@@H]5[C@]4(C)[C@H]3CC[C@@]21C` [Cyproterone acetate], the remaining activity at 3.75 µM in test [1] (Well no.=316) was determined as 95.7%; in test [1] (Well no.=1934) it was 99.8%. Moreover, the remaining activity at 1.25 µM in test [2] (Well no.=316) amounted to 95.3%; in test [2] (Well no.=1934), 99.5%.

As to `Cc1cc(C)nc(NS(=O)(=O)c2ccc(N)cc2)n1` [Sulfamethazine], the remaining activity at 3.75 µM in test [1] (Well no.=4940) amounted to 95.8%; in test [1] (Well no.=7456) it was 99.2%. Besides, the remaining activity at 1.25 µM in test [2] (Well no.=4940) is 96.7%; in test [2] (Well no.=7456), 99.7%.

Take `c1cnc(N2CCN(Cc3ccc4c(c3)OCO4)CC2)nc1` [Piribedil maleate]: the remaining activity at 3.75 µM in test [1] (Well no.=1163) is 96.2%. Moreover, in test [2] (Well no.=1163), the remaining activity at 1.25 µM came out at 96.1%.

With `O=C(O)CCCN1CCC(O[C@@H](c2ccc(Cl)cc2)c2ccccn2)CC1` [Bepotastine Besilate], the remaining activity at 3.75 µM in test [1] (Well no.=5267) came out at 91.2%. The remaining activity at 1.25 µM in test [2] (Well no.=5267) stood at 91.9%.

On to `O=C1NCCSc2c1sc1ccc(O)cc21` [kb NB 142-70], for which the remaining activity at 3.75 µM in test [1] (Well no.=6738) was determined as 92.4%. Further, the remaining activity at 1.25 µM in test [2] (Well no.=6738) was 92%.

As for `COc1cc2ncn(-c3cc(OCc4ccccc4C(F)(F)F)c(C(N)=O)s3)c2cc1OC` [GW 843682X - 5-(5,6-Dimethoxy-1H-benzimidazol-1-yl)-3-[[2-(trifluoromethyl)phenyl]methoxy]-2-thiophenecarboxamide], the remaining activity at 3.75 µM in test [1] (Well no.=2668) is 96.9%. In addition, in test [2] (Well no.=2668), the remaining activity at 1.25 µM amounted to 92.6%.

In the case of `CS(=O)(=O)c1ccc([C@H](O)[C@@H](COC(=O)CN)NC(=O)C(Cl)Cl)cc1` [Thiamphenicol glycinate], the remaining activity at 3.75 µM in test [1] (Well no.=2025) stood at 108%. Moreover, the remaining activity at 1.25 µM in test [2] (Well no.=2025) was 109%.

Consider `CC[C@H](C)C(=O)O[C@H]1CCC=C2C=C[C@H](C)[C@H](CC[C@@H]3C[C@@H](O)CC(=O)O3)[C@H]21` [Mevastatin], for which the results for the remaining activity at 3.75 µM in test [1] (Well no.=922), in test [1] (Well no.=1618) and in test [1] (Well no.=3381) were 104%, 103% and 91.3%, respectively. The remaining activity at 1.25 µM in test [2] (Well no.=922) is 105%; in test [2] (Well no.=1618), 102%; in test [2] (Well no.=3381), 90.7%.

Turning to `CCc1c(C)[nH]c2c1C(=O)C(CN1CCOCC1)CC2` (centres unmarked) [Molindone (hydrochloride)], the remaining activity at 3.75 µM in test [1] (Well no.=6905) is 93.3%; in test [1] (Well no.=7928), 98.2%. The remaining activity at 1.25 µM in test [2] (Well no.=6905) was 98.8%; in test [2] (Well no.=7928) it was 95.5%.

As to `CN[C@@H](C)C(=O)N[C@H]1CN(C(=O)CC(C)C)CC[C@H]2CC[C@@H](C(=O)NC(c3ccccc3)c3ccccc3)N2C1=O` [AT-406], in test [1] (Well no.=5071), the remaining activity at 3.75 µM is 106%. Moreover, the remaining activity at 1.25 µM in test [2] (Well no.=5071) came to 102%.

Consider `C=C1CC[C@@H]2[C@](C)(CO)[C@H](O)CC[C@@]2(C)[C@@H]1C/C=C1/C(=O)OC[C@H]1O` [Andrographolide], for which the remaining activity at 3.75 µM in test [1] (Well no.=3435) amounted to 96.9%. The remaining activity at 1.25 µM in test [2] (Well no.=3435) was found to be 93.4%.

`Cn1c(=O)c2c(ncn2CC(=O)O)n(C)c1=O` [Acefylline]: the remaining activity at 3.75 µM in test [1] (Well no.=8081) amounted to 100%; in test [1] (Well no.=8491), 103%. Further, the remaining activity at 1.25 µM came out at 102% in test [2] (Well no.=8081) and 105% in test [2] (Well no.=8491).

`O=c1cccc2n1C[C@H]1CNC[C@H]2C1` [(-)-Cytisine]: the remaining activity at 3.75 µM in test [1] (Well no.=3797) is 101%. Also, the remaining activity at 1.25 µM in test [2] (Well no.=3797) was determined as 97.8%.

Regarding `CC[C@@H](Nc1c(Nc2cccc(C(=O)N(C)C)c2O)c(=O)c1=O)c1ccc(C)o1` [Navarixin], in test [1] (Well no.=8175), the remaining activity at 3.75 µM was 101%. Moreover, the remaining activity at 1.25 µM in test [2] (Well no.=8175) turned out to be 105%.

On to `Oc1cc2c(cc1O)CN(C(=S)NCCc1ccc(Cl)cc1)CCC2` [Capsazepine], for which the remaining activity at 3.75 µM in test [1] (Well no.=631) amounted to 99.5%. Also, the remaining activity at 1.25 µM in test [2] (Well no.=631) is 98.8%.

As for `O=C(CCCCCCNC(=O)c1cnc(N(c2ccccc2)c2ccccc2)nc1)NO` [Rocilinostat (ACY-1215)], in test [1] (Well no.=4786), the remaining activity at 3.75 µM is 102%. For the same molecule, the remaining activity at 1.25 µM in test [2] (Well no.=4786) stood at 101%.

Turning to `CN[C@@H]1C[C@H]2O[C@@](C)([C@@H]1OC)n1c3ccccc3c3c4c(c5c6ccccc6n2c5c31)C(=O)N[C@H]4O` [UCN-01], in test [1] (Well no.=2587), the remaining activity at 3.75 µM came out at 97.5%. The remaining activity at 1.25 µM in test [2] (Well no.=2587) was 95.7%.

In the case of `NC(N)=NCCNS(=O)(=O)c1cccc2cnccc12` [HA 1004, Dihydrochloride], in test [1] (Well no.=2433), the remaining activity at 3.75 µM was 108%. Moreover, in test [2] (Well no.=2433), the remaining activity at 1.25 µM is 111%.

Consider `Cc1ccc(C(=O)COC(=O)c2cccc(NC(=O)c3ccc([N+](=O)[O-])cc3[N+](=O)[O-])c2)cc1` [FM19G11], for which the remaining activity at 3.75 µM in test [1] (Well no.=5606) came to 96.9%. Besides, the remaining activity at 1.25 µM in test [2] (Well no.=5606) came out at 93.7%.

On to `O=C(O)COc1cccc(CN(Cc2ccc(-n3cccn3)cc2)S(=O)(=O)c2cccnc2)c1` [Taprenepag], for which the remaining activity at 3.75 µM in test [1] (Well no.=6182) stood at 97.6%. Moreover, in test [2] (Well no.=6182), the remaining activity at 1.25 µM was determined as 96%.

As for `O=C(NC1CCN(CCCCC2(C(=O)NCC(F)(F)F)c3ccccc3-c3ccccc32)CC1)c1ccccc1-c1ccc(C(F)(F)F)cc1` [Lomitapide], the remaining activity at 3.75 µM in test [1] (Well no.=8672) is 93.5%. For the same molecule, the remaining activity at 1.25 µM in test [2] (Well no.=8672) turned out to be 93.8%.

For `CC(C)C[C@H]1C(=O)N2CCC[C@H]2[C@]2(O)O[C@](NC(=O)[C@@H]3C=C4c5cccc6[nH]c(Br)c(c56)C[C@H]4N(C)C3)(C(C)C)C(=O)N12` [Bromocriptine (mesylate)], the remaining activity at 3.75 µM in test [1] (Well no.=6891) came to 96.2%. Besides, in test [2] (Well no.=6891), the remaining activity at 1.25 µM was found to be 97.5%.

With `COc1ccnc2[nH]cc(C(=O)C(=O)N3CCN(C(=O)c4ccccc4)C[C@H]3C)c12` [BMS-378806], the remaining activity at 3.75 µM in test [1] (Well no.=8420) stood at 94.2%. For the same molecule, the remaining activity at 1.25 µM in test [2] (Well no.=8420) was determined as 96.7%.

Consider `O=C(O)c1cc(/N=N/c2ccc(S(=O)(=O)Nc3ccccn3)cc2)ccc1O` [Sulfasalazine], for which the remaining activity at 3.75 µM in test [1] (Well no.=2293) is 97.5%; in test [1] (Well no.=7312), 101%. In addition, the remaining activity at 1.25 µM in test [2] (Well no.=2293) was 96.4%; in test [2] (Well no.=7312), 101%.
